Measurements published in patent US20240238423A9, “TETRAHYDROISOQUINOLINE HETEROBIFUNCTIONAL BCL-XL DEGRADERS” (Treeline Biosciences, Inc., priority 2022, published 2024).
Where two headings read alike, the source gives them in different places.

Molecular target: T1, Human BCL-XL protein (N-terminal HiBiT tagged BCL-XL in HT1080 cells) (Homo sapiens, UniProt Q07817)
T1 construct: expressed in transfected cells; host or cells: HT-1080 (ATCC CCL-121), stably transduced with lentivirus pLV-UBC-N-HiBiT-BCL-XL-PGK-puro and selected with puromycin
Test: HiBiT based degradation assay
Format: cell-based
Conditions: HT1080 cells expressing HiBiT-BCL-XL; for Ymin (6 h) / Ymin (24 h): BCL-XL degradation normalized with DMSO control; for DC50: BCL-XL degradation
Procedure, shortened: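 This HiBiT degradation assay measured loss of BCL-XL in HT1080 cells that stably express an N-terminal HiBiT-BCL-XL fusion delivered by lentivirus. Cells were added to compound-spotted 384-well plates, and luminescence was read on a PHERAstar FSX reader. Signal was expressed relative to DMSO controls, curves were fitted by four-parameter logistic regression, and for hook-shaped curves the Ymin point served as the bottom plateau when calculating EC50.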

T1 sequence (Q07817 whole entry): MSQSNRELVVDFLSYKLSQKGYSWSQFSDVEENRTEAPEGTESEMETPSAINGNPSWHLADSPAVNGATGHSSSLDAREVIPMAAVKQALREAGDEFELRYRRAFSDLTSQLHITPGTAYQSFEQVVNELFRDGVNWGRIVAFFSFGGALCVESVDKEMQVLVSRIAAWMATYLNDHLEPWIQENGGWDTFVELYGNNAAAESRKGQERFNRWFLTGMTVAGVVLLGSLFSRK

| Structure (SMILES) | Ymin (6 h) | Ymin (24 h) | DC50 (6 h, read-out: EC50 (6 h)) [nM] | DC50 (24 h, read-out: EC50 (24 h)) [nM] |
| --- | --- | --- | --- | --- |
| Cc1cc(OCCCN2C[C@@H](C)N(CC(=O)N3CCN(c4cccc5c(C6CCC(=O)NC6=O)nn(C)c45)CC3)[C@@H](C)C2)ccc1-c1ccc(N2CCc3cccc(C(=O)Nc4nc5ccccc5s4)c3C2)nc1C(=O)O (stereo partly drawn) [Compound 183a, 6-[8-(1,3-benzothiazol-2-ylcarbamoyl)-3,4-dihydro-1H-isoquinolin-2-yl]-3-[4-[3-[(3S,5R)-4-[2-[4-[3-(2,6-dioxo-3-piperidyl)-1-methyl-indazol-7-yl]piperazin-1-yl]-2-oxo-ethyl]-3,5-dimethyl-piperazin-1-yl]propoxy]-2-methyl-phenyl]pyridine-2-carboxylic acid] | B (50% ≤ Ymin < 70%) | A (Ymin < 50%) | < 100 | < 100 |
| Cc1cc(OCCCC2CCN(CC(=O)Nc3ccc4c(C5CCC(=O)NC5=O)nn(C)c4c3)CC2)ccc1-c1ccc(N2CCc3cccc(C(=O)Nc4nc5ccccc5s4)c3C2)nc1C(=O)O (stereo not drawn) [Compound 184, 6-[8-(1,3-benzothiazol-2-ylcarbamoyl)-3,4-dihydro-1H-isoquinolin-2-yl]-3-[4-[3-[1-[2-[[3-(2,6-dioxo-3-piperidyl)-1-methyl-indazol-6-yl]amino]-2-oxo-ethyl]-4-piperidyl]propoxy]-2-methyl-phenyl]pyridine-2-carboxylic acid] | A (Ymin < 50%) | A (Ymin < 50%) | < 100 | < 100 |
| Cc1c(OCC(F)(F)CN2C[C@@H](C)N(CC(=O)N3CCN(c4ccc5c(C6CCC(=O)NC6=O)nn(C)c5c4)CC3)[C@@H](C)C2)cccc1-c1ccc(N2CCc3cccc(C(=O)Nc4nc5ccccc5s4)c3C2)nc1C(=O)O (stereo partly drawn) [Compound 185a, 6-[8-(1,3-benzothiazol-2-ylcarbamoyl)-3,4-dihydro-1H-isoquinolin-2-yl]-3-[3-[3-[(3R,5S)-4-[2-[4-[3-(2,6-dioxo-3-piperidyl)-1-methyl-indazol-6-yl]piperazin-1-yl]-2-oxo-ethyl]-3,5-dimethyl-piperazin-1-yl]-2,2-difluoro-propoxy]-2-methyl-phenyl]pyridine-2-carboxylic acid] | – | A (Ymin < 50%) | – | < 100 |
| Cc1c(OCCCC[C@@H]2CCCN(CC(=O)Nc3cccc4c(C5CCC(=O)NC5=O)nn(C)c34)C2)cccc1-c1ccc(N2CCc3cccc(C(=O)Nc4nc5ccccc5s4)c3C2)nc1C(=O)O (stereo partly drawn) [Compound 186a, 6-[8-(1,3-benzothiazol-2-ylcarbamoyl)-3,4-dihydro-1H-isoquinolin-2-yl]-3-[3-[4-[(3R)-1-[2-[[3-(2,6-dioxo-3-piperidyl)-1-methyl-indazol-7-yl]amino]-2-oxo-ethyl]-3-piperidyl]butoxy]-2-methyl-phenyl]pyridine-2-carboxylic acid] | – | B (50% ≤ Ymin < 70%) | – | < 100 |
| Cc1c(OCCCC[C@H]2CCCN(CC(=O)Nc3cccc4c(C5CCC(=O)NC5=O)nn(C)c34)C2)cccc1-c1ccc(N2CCc3cccc(C(=O)Nc4nc5ccccc5s4)c3C2)nc1C(=O)O (stereo partly drawn) [Compound 186b, 6-[8-(1,3-benzothiazol-2-ylcarbamoyl)-3,4-dihydro-1H-isoquinolin-2-yl]-3-[3-[4-[(3S)-1-[2-[[3-(2,6-dioxo-3-piperidyl)-1-methyl-indazol-7-yl]amino]-2-oxo-ethyl]-3-piperidyl]butoxy]-2-methyl-phenyl]pyridine-2-carboxylic acid] | – | C (Ymin ≥ 70%) | – | 1000 to 10000 |
| Cc1c(OCCCN2CCN(CC(=O)Nc3ccc4c(C5CCC(=O)NC5=O)nn(C)c4c3)[C@H](C(F)(F)F)C2)cccc1-c1ccc(N2CCc3cccc(C(=O)Nc4nc5ccccc5s4)c3C2)nc1C(=O)O (stereo partly drawn) [Compound 187a, 6-(8-(benzo[d]thiazol-2-ylcarbamoyl)-3,4-dihydroisoquinolin-2(1H)-yl)-3-(3-(3-((3S)-4-(2-((3-(2,6-dioxopiperidin-3-yl)-1-methyl-1H-indazol-6-yl)amino)-2-oxoethyl)-3-(trifluoromethyl)piperazin-1-yl)propoxy)-2-methylphenyl)picolinic acid] | B (50% ≤ Ymin < 70%) | B (50% ≤ Ymin < 70%) | 100 to 1000 | < 100 |
| Cc1c(OCCCN2CCN(CC(=O)Nc3ccc4c(C5CCC(=O)NC5=O)nn(C)c4c3)[C@@H](C(F)(F)F)C2)cccc1-c1ccc(N2CCc3cccc(C(=O)Nc4nc5ccccc5s4)c3C2)nc1C(=O)O (stereo partly drawn) [Compound 187b, 6-(8-(benzo[d]thiazol-2-ylcarbamoyl)-3,4-dihydroisoquinolin-2(1H)-yl)-3-(3-(3-((3R)-4-(2-((3-(2,6-dioxopiperidin-3-yl)-1-methyl-1H-indazol-6-yl)amino)-2-oxoethyl)-3-(trifluoromethyl)piperazin-1-yl)propoxy)-2-methylphenyl)picolinic acid] | B (50% ≤ Ymin < 70%) | A (Ymin < 50%) | < 100 | < 100 |
| Cc1c(OCC2CC3(CCN(CCN4CCN(c5cccc6c(C7CCC(=O)NC7=O)nn(C)c56)CC4)CC3)C2)cccc1-c1ccc(N2CCc3cccc(C(=O)Nc4nc5ccccc5s4)c3C2)nc1C(=O)O (stereo not drawn) [Compound 188, 6-[8-(1,3-benzothiazol-2-ylcarbamoyl)-3,4-dihydro-1H-isoquinolin-2-yl]-3-[3-[[7-[2-[4-[3-(2,6-dioxo-3-piperidyl)-1-methyl-indazol-7-yl]piperazin-1-yl]ethyl]-7-azaspiro[3.5]nonan-2-yl]methoxy]-2-methyl-phenyl]pyridine-2-carboxylic acid] | – | A (Ymin < 50%) | – | < 100 |
| Cc1c(OCCCN2CCN(CC3CCN(c4ccc5c(C6CCC(=O)NC6=O)nn(C)c5c4)CC3)CC2)cccc1-c1ccc(N2CCc3cccc(C(=O)Nc4nc5ccccc5s4)c3C2)nc1C(=O)O (stereo not drawn) [Compound 189, 6-(8-(benzo[d]thiazol-2-ylcarbamoyl)-3,4-dihydroisoquinolin-2(1H)-yl)-3-(3-(3-(4-((1-(3-(2,6-dioxopiperidin-3-yl)-1-methyl-1H-indazol-6-yl)piperidin-4-yl)methyl)piperazin-1-yl)propoxy)-2-methylphenyl)picolinic acid] | – | A (Ymin < 50%) | – | < 100 |
| Cc1c(Oc2ccc(CCCC(=O)N3CCN(c4cccc5c(C6CCC(=O)NC6=O)nn(C)c45)CC3)cc2)cccc1-c1ccc(N2CCc3cccc(C(=O)Nc4nc5ccccc5s4)c3C2)nc1C(=O)O (stereo not drawn) [Compound 191, 6-(8-(benzo[d]thiazol-2-ylcarbamoyl)-3,4-dihydroisoquinolin-2(1H)-yl)-3-(3-(4-(4-(4-(3-(2,6-dioxopiperidin-3-yl)-1-methyl-1H-indazol-7-yl)piperazin-1-yl)-4-oxobutyl)phenoxy)-2-methylphenyl)picolinic acid] | – | B (50% ≤ Ymin < 70%) | – | < 100 |
| Cc1c(OCCCC2CCN(CCC3CCN(c4ccc5c(C6CCC(=O)NC6=O)nn(C)c5c4)CC3)CC2)cccc1-c1ccc(N2CCc3cccc(C(=O)Nc4nc5ccccc5s4)c3C2)nc1C(=O)O (stereo not drawn) [Compound 192, 6-(8-(benzo[d]thiazol-2-ylcarbamoyl)-3,4-dihydroisoquinolin-2(1H)-yl)-3-(3-(3-(1-(2-(1-(3-(2,6-dioxopiperidin-3-yl)-1-methyl-1H-indazol-6-yl)piperidin-4-yl)ethyl)piperidin-4-yl)propoxy)-2-methylphenyl)picolinic acid] | – | A (Ymin < 50%) | – | < 100 |
| Cc1c(OCCC[C@@H]2CCN(CC(=O)Nc3ccc4c(C5CCC(=O)NC5=O)nn(C)c4c3)CC2(F)F)cccc1-c1ccc(N2CCc3cccc(C(=O)Nc4nc5ccccc5s4)c3C2)nc1C(=O)O (stereo partly drawn) [Compound 193a, 6-(8-(benzo[d]thiazol-2-ylcarbamoyl)-3,4-dihydroisoquinolin-2(1H)-yl)-3-(3-(3-((4R)-1-(2-((3-(2,6-dioxopiperidin-3-yl)-1-methyl-1H-indazol-6-yl)amino)-2-oxoethyl)-3,3-difluoropiperidin-4-yl)propoxy)-2-methylphenyl)picolinic acid] | – | B (50% ≤ Ymin < 70%) | – | 100 to 1000 |
| Cc1c(OCCC[C@H]2CCN(CC(=O)Nc3ccc4c(C5CCC(=O)NC5=O)nn(C)c4c3)CC2(F)F)cccc1-c1ccc(N2CCc3cccc(C(=O)Nc4nc5ccccc5s4)c3C2)nc1C(=O)O (stereo partly drawn) [Compound 193b] | – | B (50% ≤ Ymin < 70%) | – | 100 to 1000 |
| Cc1c(OCCOC2CCN(CC(=O)Nc3cccc4c(C5CCC(=O)NC5=O)nn(C)c34)CC2)cccc1-c1ccc(N2CCc3cccc(C(=O)Nc4nc5ccccc5s4)c3C2)nc1C(=O)O (stereo not drawn) [Compound 194, 6-[8-(1,3-benzothiazol-2-ylcarbamoyl)-3,4-dihydro-1H-isoquinolin-2-yl]-3-[3-[2-[[1-[2-[[3-(2,6-dioxo-3-piperidyl)-1-methyl-indazol-7-yl]amino]-2-oxo-ethyl]-4-piperidyl]oxy]ethoxy]-2-methyl-phenyl]pyridine-2-carboxylic acid] | B (50% ≤ Ymin < 70%) | B (50% ≤ Ymin < 70%) | 100 to 1000 | 100 to 1000 |
| Cc1c(Oc2cccc(CCCN3CCN(c4ccc5c(C6CCC(=O)NC6=O)nn(C)c5c4)CC3)c2)cccc1-c1ccc(N2CCc3cccc(C(=O)Nc4nc5ccccc5s4)c3C2)nc1C(=O)O (stereo not drawn) [Compound 195, 6-[8-(1,3-benzothiazol-2-ylcarbamoyl)-3,4-dihydro-1H-isoquinolin-2-yl]-3-[3-[3-[3-[4-[3-(2,6-dioxo-3-piperidyl)-1-methyl-indazol-6-yl]piperazin-1-yl]propyl]phenoxy]-2-methyl-phenyl]pyridine-2-carboxylic acid] | C (Ymin ≥ 70%) | B (50% ≤ Ymin < 70%) | < 100 | < 100 |
